Reference: patent US11732286B2, “T5 exonuclease-based method to identify DNA topoisomerase inhibitors” (The Florida International University Board of Trustees, priority 2020, dated 2023)
pIC50: −log10 of the molar value. “Also recorded” adds a separate entry of the source. Counter-ions that a name gives are not always drawn. Like-named read-outs stand apart in the source and are kept apart here. Where a SMILES comes first, the peptide text is derived from it. Bridges are numbered along the chain shown (N, C = ends). [ ]: non-standard residue; d: D form. The star is where a group is joined. Octanoyl(6-Me) = CCC(C)CCCCC(=O)*; Dab = NCC[CH](N)C(=O)O

Legend:
E. coli DNA gyrase = E. coli DNA gyrase (Escherichia coli, UniProt P0AES4+P0AES6); assay type: biochemical; conditions: for result in words, pathogen box screen for E. coli DNA gyrase: 400 compounds, several rounds of screening; for hit call, gyrase HTS (FIG. 7): 20 μM, triplicate, Z′ 0.64, S/B 4.3
Mtb DNA topoisomerase I = Mtb DNA topoisomerase I (Mycobacterium tuberculosis, UniProt P9WG49); assay type: biochemical; conditions: for screening result in words (Mtb topo I HTS): interpretation of Table 4
[1] = target: E. coli DNA topoisomerase I (Escherichia coli, UniProt P06612); assay type: biochemical; conditions: for screening result in words (E. coli topo I HTS): interpretation of Table 5 / FIG. 11
[2] = target: variola virus DNA topoisomerase 1 (vTopI) (Variola virus, UniProt P32989); assay type: biochemical; conditions: for screening result in words (Variola topo I HTS): interpretation of Table 6
supercoiled plasmid pAB1 = assay: T5 exonuclease-based HTS assay for DNA intercalators (sc pAB1, no topoisomerase)
[3] = target: T1, human DNA topoisomerase I (HuTopI) (Homo sapiens, UniProt P11387); assay: Human TopI-catalyzed DNA relaxation of sc pAB1_FL905 (fluorescence, FIG. 14); assay type: biochemical; conditions: 25 nM huTopI, sc pAB1_FL905, λem=521 nm, λex=482 nm; read-out: IC50 for inhibition of HuTopI activities
T1 sequence (P11387 1-765): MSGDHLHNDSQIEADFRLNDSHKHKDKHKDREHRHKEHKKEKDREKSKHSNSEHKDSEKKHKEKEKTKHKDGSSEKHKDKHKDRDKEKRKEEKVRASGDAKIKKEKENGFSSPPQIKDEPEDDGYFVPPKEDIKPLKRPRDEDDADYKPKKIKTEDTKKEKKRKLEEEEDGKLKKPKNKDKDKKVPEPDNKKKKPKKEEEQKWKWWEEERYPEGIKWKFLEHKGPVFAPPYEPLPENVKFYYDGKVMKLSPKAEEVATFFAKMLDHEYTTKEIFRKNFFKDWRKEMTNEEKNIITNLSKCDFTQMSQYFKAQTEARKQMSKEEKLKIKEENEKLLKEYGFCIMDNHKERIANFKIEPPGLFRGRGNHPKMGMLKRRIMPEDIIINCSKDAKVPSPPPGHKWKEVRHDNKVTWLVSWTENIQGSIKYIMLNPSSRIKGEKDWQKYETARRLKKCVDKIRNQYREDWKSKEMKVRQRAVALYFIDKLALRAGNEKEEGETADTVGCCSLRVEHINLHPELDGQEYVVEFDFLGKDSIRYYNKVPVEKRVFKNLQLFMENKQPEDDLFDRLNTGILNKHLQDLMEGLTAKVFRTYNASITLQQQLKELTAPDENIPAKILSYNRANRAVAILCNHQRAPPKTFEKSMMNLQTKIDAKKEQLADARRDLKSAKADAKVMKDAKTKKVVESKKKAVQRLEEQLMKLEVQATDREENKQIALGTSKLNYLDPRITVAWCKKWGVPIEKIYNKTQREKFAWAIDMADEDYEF

MtbTopI = MtbTopI (Mycobacterium tuberculosis, UniProt P9WG49); assay: MtbTopI inhibition test of FIG. 14; assay type: biochemical
MtbTopI, sequence (P9WG49 whole entry): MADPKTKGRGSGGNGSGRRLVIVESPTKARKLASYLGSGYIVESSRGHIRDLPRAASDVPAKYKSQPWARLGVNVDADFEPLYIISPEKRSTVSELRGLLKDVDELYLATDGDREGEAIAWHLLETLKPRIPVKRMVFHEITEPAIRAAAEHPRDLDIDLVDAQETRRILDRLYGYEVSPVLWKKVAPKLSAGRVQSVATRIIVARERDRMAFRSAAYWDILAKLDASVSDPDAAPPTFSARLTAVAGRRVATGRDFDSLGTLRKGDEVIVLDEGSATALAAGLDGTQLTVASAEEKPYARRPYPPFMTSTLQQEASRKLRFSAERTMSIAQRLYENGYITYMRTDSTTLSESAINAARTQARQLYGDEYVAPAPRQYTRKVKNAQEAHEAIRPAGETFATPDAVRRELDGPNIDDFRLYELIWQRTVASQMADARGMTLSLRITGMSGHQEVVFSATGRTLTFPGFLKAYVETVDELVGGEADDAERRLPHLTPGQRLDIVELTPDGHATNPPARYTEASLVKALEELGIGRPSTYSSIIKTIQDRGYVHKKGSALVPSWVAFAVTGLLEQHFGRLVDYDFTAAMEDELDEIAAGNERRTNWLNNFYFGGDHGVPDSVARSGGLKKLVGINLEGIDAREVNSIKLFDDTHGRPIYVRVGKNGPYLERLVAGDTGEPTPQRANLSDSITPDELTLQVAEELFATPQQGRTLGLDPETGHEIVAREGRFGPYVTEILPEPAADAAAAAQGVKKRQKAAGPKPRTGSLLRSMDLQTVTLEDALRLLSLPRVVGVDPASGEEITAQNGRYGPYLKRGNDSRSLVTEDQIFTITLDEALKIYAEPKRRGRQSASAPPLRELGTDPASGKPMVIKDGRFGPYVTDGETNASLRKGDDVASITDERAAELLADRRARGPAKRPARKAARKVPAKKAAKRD

Mtb DNA topoisomerase I, sequence (P9WG49 whole entry): as above
E. coli DNA topoisomerase I, sequence (P06612 whole entry): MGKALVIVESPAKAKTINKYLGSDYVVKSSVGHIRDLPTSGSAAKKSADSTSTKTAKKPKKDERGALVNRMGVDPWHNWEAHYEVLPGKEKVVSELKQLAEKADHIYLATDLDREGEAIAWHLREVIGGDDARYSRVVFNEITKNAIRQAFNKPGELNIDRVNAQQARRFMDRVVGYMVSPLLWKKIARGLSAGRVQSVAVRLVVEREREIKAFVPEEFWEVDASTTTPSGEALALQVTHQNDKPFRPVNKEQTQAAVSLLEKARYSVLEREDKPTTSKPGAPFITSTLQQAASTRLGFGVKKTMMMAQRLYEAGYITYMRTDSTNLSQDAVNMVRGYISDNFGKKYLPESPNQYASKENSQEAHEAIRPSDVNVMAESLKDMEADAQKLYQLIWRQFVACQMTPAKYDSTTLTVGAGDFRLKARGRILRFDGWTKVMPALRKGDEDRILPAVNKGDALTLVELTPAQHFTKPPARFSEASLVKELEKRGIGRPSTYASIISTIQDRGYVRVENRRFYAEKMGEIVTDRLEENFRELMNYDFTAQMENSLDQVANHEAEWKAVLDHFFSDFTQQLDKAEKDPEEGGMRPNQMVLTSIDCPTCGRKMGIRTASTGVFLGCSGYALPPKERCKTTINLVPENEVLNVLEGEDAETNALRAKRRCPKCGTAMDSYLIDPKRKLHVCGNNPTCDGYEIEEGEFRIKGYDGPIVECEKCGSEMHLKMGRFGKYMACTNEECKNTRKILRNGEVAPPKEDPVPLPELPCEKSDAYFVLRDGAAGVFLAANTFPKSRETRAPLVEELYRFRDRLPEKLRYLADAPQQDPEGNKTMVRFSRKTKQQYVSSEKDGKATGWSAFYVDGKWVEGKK
E. coli DNA gyrase, sequence (P0AES4 whole entry, one chain of several): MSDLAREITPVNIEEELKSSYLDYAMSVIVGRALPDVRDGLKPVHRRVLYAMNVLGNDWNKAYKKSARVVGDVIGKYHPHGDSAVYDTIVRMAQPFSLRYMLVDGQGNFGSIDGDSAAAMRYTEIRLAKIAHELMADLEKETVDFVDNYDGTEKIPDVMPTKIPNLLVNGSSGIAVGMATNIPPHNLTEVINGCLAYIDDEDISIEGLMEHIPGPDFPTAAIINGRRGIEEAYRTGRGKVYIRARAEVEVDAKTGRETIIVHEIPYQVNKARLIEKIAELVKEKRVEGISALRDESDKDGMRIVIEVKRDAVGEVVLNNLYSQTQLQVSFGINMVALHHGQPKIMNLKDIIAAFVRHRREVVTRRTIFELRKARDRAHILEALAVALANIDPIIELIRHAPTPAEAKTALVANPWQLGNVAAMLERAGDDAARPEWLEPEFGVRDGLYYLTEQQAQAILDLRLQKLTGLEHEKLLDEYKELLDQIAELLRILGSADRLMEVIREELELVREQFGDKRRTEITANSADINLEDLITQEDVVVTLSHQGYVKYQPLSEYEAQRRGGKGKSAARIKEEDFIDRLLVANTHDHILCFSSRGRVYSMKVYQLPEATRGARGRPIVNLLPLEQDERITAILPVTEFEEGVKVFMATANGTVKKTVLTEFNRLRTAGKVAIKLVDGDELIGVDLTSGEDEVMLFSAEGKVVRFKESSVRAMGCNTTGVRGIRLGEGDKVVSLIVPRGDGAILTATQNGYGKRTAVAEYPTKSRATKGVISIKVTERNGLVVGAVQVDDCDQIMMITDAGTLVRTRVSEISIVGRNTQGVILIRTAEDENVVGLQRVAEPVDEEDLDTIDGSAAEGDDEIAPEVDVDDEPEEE
variola virus DNA topoisomerase 1 (vTopI), sequence (P32989 whole entry, looked up): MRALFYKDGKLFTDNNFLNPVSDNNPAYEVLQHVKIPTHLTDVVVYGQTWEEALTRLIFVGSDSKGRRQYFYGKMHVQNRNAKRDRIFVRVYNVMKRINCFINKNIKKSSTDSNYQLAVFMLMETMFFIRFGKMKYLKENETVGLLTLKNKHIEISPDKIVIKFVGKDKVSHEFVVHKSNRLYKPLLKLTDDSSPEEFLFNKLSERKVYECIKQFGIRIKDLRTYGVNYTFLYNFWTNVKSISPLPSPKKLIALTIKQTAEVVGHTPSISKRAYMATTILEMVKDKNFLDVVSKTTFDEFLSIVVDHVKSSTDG

## Cc1ncc(C[n+]2csc(CCO)c2C)c(N)n1 [Vitamine B1]
E. coli DNA gyrase
  fluorescence, HTS screening of 50-compound library for E. coli DNA gyrase inhibitors: 467
Mtb DNA topoisomerase I
  fluorescence, HTS screening of 50-compound library for Mtb DNA topoisomerase 1 inhibitors: 1224
[1]
  fluorescence, HTS screening of 50-compound library for E. coli DNA topoisomerase 1 inhibitors: 1441

## CCCCCCCCOC(=O)c1cc(O)c(O)c(O)c1 [NSC97419]
Mtb DNA topoisomerase I
  screening result in words (Mtb topo I HTS): new Mtb DNA topI inhibitors; also recorded: can inhibit Mtb topo I
[1]
  screening result in words (E. coli topo I HTS): can inhibit E. coli topo I
[2]
  screening result in words (Variola topo I HTS): can inhibit Variola topo I

## C[C@H]1COc2c(N3CCN(C)CC3)c(F)cc3c(=O)c(C(=O)O)cn1c23 [Levofloxacin]
E. coli DNA gyrase; interpretation of Table 2
  screening result in words (Table 2, gyrase HTS): DNA intercalators
E. coli DNA gyrase
  result in words, pathogen box screen for E. coli DNA gyrase: inhibit E. coli DNA gyrase activities

## CS[C@H]1SC[C@H]2C(=O)N(C)[C@@H](C(C)C)C(=O)OC[C@@H](NC(=O)c3cnc4ccccc4n3)C(=O)N[C@@H](C)C(=O)N(C)[C@@H]1C(=O)N(C)[C@@H](C(C)C)C(=O)OC[C@@H](NC(=O)c1cnc3ccccc3n1)C(=O)N[C@@H](C)C(=O)N2C [echinomycin]
E. coli DNA gyrase
  hit call, gyrase HTS (FIG. 7): hits
E. coli DNA gyrase; interpretation of Table 2
  screening result in words (Table 2, gyrase HTS): DNA intercalators
[2]
  fluorescence, HTS screening of 50-compound library (Table 6; vTopI): 1238

## NC(N)=Nc1ccc(-c2ccc(-c3ccc(N=C(N)N)cc3Cl)o2)c(Cl)c1 [MMV688179]
E. coli DNA gyrase
  result in words, pathogen box screen for E. coli DNA gyrase: inhibit E. coli DNA gyrase activities

## O=C(O)c1cn(C2CC2)c2cc(N3CCNCC3)c(F)cc2c1=O [Ciprofloxacin]
E. coli DNA gyrase
  fluorescence, HTS screening of 50-compound library for E. coli DNA gyrase inhibitors: 1803
  screening result in words (Table 2, gyrase HTS): DNA intercalators
Mtb DNA topoisomerase I
  fluorescence, HTS screening of 50-compound library for Mtb DNA topoisomerase 1 inhibitors: 1493
[1]
  fluorescence, HTS screening of 50-compound library for E. coli DNA topoisomerase 1 inhibitors: 1191

## c1ccncc1 [pyridine]
E. coli DNA gyrase
  fluorescence, HTS screening of 50-compound library for E. coli DNA gyrase inhibitors: 568
Mtb DNA topoisomerase I
  fluorescence, HTS screening of 50-compound library for Mtb DNA topoisomerase 1 inhibitors: 1380
[1]
  fluorescence, HTS screening of 50-compound library for E. coli DNA topoisomerase 1 inhibitors: 1339
Supercoiled plasmid pAB1
  fluorescence, HTS screening of 50-compound library for DNA intercalators: 218

## CN[C@H](CC(C)C)C(=O)N[C@H]1C(=O)N[C@@H](CC(N)=O)C(=O)N[C@H]2C(=O)N[C@H]3C(=O)N[C@H](C(=O)N[C@H](C(=O)O)c4cc(O)cc(O)c4-c4cc3ccc4O)[C@H](O)c3ccc(c(Cl)c3)Oc3cc2cc(c3O[C@@H]2O[C@H](CO)[C@@H](O)[C@H](O)[C@H]2OC2C[C@](C)(N)[C@H](O)[C@H](C)O2)Oc2ccc(cc2Cl)[C@H]1O (some centres unmarked) [Vancomycin]
[2]
  fluorescence, HTS screening of 50-compound library (Table 6; vTopI): 1398

## CCn1cc(C(=O)O)c(=O)c2cc(F)c(N3CCNCC3)cc21 [Norfloxacin]
E. coli DNA gyrase; interpretation of Table 2
  screening result in words (Table 2, gyrase HTS): DNA intercalators

## CCC(C)CCCCC(=O)NC(CCN)C(=O)NC(C(=O)NC(CCN)C(=O)NC1CCNC(=O)C(C(C)O)NC(=O)C(CCN)NC(=O)C(CCN)NC(=O)C(CC(C)C)NC(=O)C(Cc2ccccc2)NC(=O)C(CCN)NC1=O)C(C)O (centres unmarked) [Polymyxin B sulfate salt] ({Octanoyl(6-Me)}-[Dab]T[Dab][Dab][Dab]FL[Dab][Dab]T; lactam 4-C; configuration not given here)
[2]
  fluorescence, HTS screening of 50-compound library (Table 6; vTopI): 1744

## CCn1cc(C(=O)O)c(=O)c2cc(F)c(N3CCNC(C)C3)c(F)c21 (centres unmarked) [Lomefloxacin]
E. coli DNA gyrase; interpretation of Table 2
  screening result in words (Table 2, gyrase HTS): DNA intercalators

## O=C1C=C(NCCc2cc(Br)c(O)c(Br)c2)C(=O)c2ncccc21 [NSC668394]
Mtb DNA topoisomerase I
  screening result in words (Mtb topo I HTS): new Mtb DNA topI inhibitors; also recorded: can inhibit Mtb topo I
[1]
  screening result in words (E. coli topo I HTS): new E. coli DNA Topo I inhibitor; also recorded: can inhibit E. coli topo I
[3]
  pIC50: 5.30
MtbTopI
  inhibition of MtbTopI in words (FIG. 14B and D): did not inhibit

## Cc1ccc(C(=O)Nc2ccc(S(=O)(=O)O)c3cc(S(=O)(=O)O)cc(S(=O)(=O)O)c23)cc1NC(=O)c1cccc(NC(=O)Nc2cccc(C(=O)Nc3cc(C(=O)Nc4ccc(S(=O)(=O)O)c5cc(S(=O)(=O)O)cc(S(=O)(=O)O)c45)ccc3C)c2)c1 [suramin]
E. coli DNA gyrase
  hit call, gyrase HTS (FIG. 7): hits
E. coli DNA gyrase; interpretation of Table 2
  screening result in words (Table 2, gyrase HTS): DNA intercalators
Mtb DNA topoisomerase I
  screening result in words (Mtb topo I HTS): can inhibit Mtb topo I
[1]
  screening result in words (E. coli topo I HTS): can inhibit E. coli topo I
[2]
  screening result in words (Variola topo I HTS): can inhibit Variola topo I

## Nc1ccc(S(N)(=O)=O)cc1 [sulfanilamide]
E. coli DNA gyrase
  fluorescence, HTS screening of 50-compound library for E. coli DNA gyrase inhibitors: 558
Mtb DNA topoisomerase I
  fluorescence, HTS screening of 50-compound library for Mtb DNA topoisomerase 1 inhibitors: 1523
[1]
  fluorescence, HTS screening of 50-compound library for E. coli DNA topoisomerase 1 inhibitors: 1426

## citrinin
[2]
  fluorescence, HTS screening of 50-compound library (Table 6; vTopI): 1311

## NCCCC[C@H](N)C(=O)O [L-lysine]
[2]
  fluorescence, HTS screening of 50-compound library (Table 6; vTopI): 1028

## NC[C@H]1O[C@H](O[C@H]2[C@H](O)[C@@H](O[C@H]3O[C@H](CO)[C@@H](O)[C@H](N)[C@H]3O)[C@H](N)C[C@@H]2N)[C@H](O)[C@@H](O)[C@@H]1O [kanamycin]
E. coli DNA gyrase
  fluorescence, HTS screening of 50-compound library for E. coli DNA gyrase inhibitors: 510
Mtb DNA topoisomerase I
  fluorescence, HTS screening of 50-compound library for Mtb DNA topoisomerase 1 inhibitors: 1466
[1]
  fluorescence, HTS screening of 50-compound library for E. coli DNA topoisomerase 1 inhibitors: 1719

## CC[C@@]1(O)C(=O)OCc2c1cc1n(c2=O)Cc2cc3c(CN(C)C)c(O)ccc3nc2-1 [topotecan]
Mtb DNA topoisomerase I
  screening result in words (Mtb topo I HTS): new Mtb DNA topI inhibitors; also recorded: can inhibit Mtb topo I

## NCC(=O)O [Glycine]
E. coli DNA gyrase
  fluorescence, HTS screening of 50-compound library for E. coli DNA gyrase inhibitors: 644
Mtb DNA topoisomerase I
  fluorescence, HTS screening of 50-compound library for Mtb DNA topoisomerase 1 inhibitors: 1321
[1]
  fluorescence, HTS screening of 50-compound library for E. coli DNA topoisomerase 1 inhibitors: 1589

## CCOc1ccc2nc3cc(N)ccc3c(N)c2c1 [ethacridine]
E. coli DNA gyrase
  hit call, gyrase HTS (FIG. 7): hits
E. coli DNA gyrase; interpretation of Table 2
  screening result in words (Table 2, gyrase HTS): DNA intercalators

## CC[C@@]1(O)C(=O)OCc2c1cc1n(c2=O)Cc2cc3ccccc3nc2-1 [camptothecin]
[2]
  fluorescence, HTS screening of 50-compound library (Table 6; vTopI): 1712

## CCN1CCN(c2cc3c(cc2F)c(=O)c(C(=O)O)cn3C2CC2)CC1 [Enrofloxacin]
E. coli DNA gyrase; interpretation of Table 2
  screening result in words (Table 2, gyrase HTS): DNA intercalators
[2]
  screening result in words (Variola topo I HTS): can inhibit Variola topo I
